We go through one compound from paper PMC11272598, “RG7774 (Vicasinabin), an orally bioavailable cannabinoid receptor 2 (CB2R) agonist, decreases retinal vascular permeability, leukocyte adhesion, and ocular inflammation in animal models” (Frontiers in Pharmacology, 2024).

SMILES strings stand for the structures. Values joined by “and” are separate entries in the source; they are usually repeats but may differ in a detail not shown here. Equal values may be shown once.

In data set [1] the target is human CB1R (Homo sapiens, UniProt P21554). Briefly: Forskolin-stimulated cAMP assay in CHO cells. The arrangement: bgal (beta-galactosidase fragment of the PathHunter system); host or cells: CHO-K1. Type of data set: cell-based. To be noted: recombinant CHO cells. As for the experimental part:
(§1) The inhibitory effects of RG7774 on forskolin-stimulated accumulation of cAMP were determined using the cAMP-Nano-TRF detection kit (Roche Diagnostics, Penzberg, Germany), as previously described ([Porter et al., 2019]). CHOK1hCB1_bgal, CHOK1mCB2_bgal, and CHOK1hCB2_bgal cells (DiscoveRx, Fremont, CA, United States) were seeded 17–24 h prior to the experiment at a density of 3 × 10^4 cells per well in a black 96-well plate with a flat, clear bottom (Corning, Wiesbaden, Germany) prior to incubating in 5% CO2 at 37°C in a humidified incubator. The growth medium was exchanged with Krebs Ringer bicarbonate buffer containing 1 mM IBMX and 0.1% fatty acid-free BSA and incubated at 30°C for 1 h. RG7774 or positive control (CP55940) (1 µM) was added to a 0.1 mL final assay volume and the mixture was incubated at 30°C for 30 min. The assay was stopped by adding 50 μL 3x lysis reagent and shaking for 2 h at RT. The time-resolved energy transfer was measured using an LF502 Nanoscan FLT (IOM, Berlin, Germany) equipped with a laser excitation source. cAMP content was determined from a standard curve spanning 10–0.13 nM cAMP. Efficacies were expressed as a percentage relative to the positive control.

Data set [2] deals with T1, endogenous CB2R (Homo sapiens, UniProt P34972).
T1 construct: endogenous CB2R in human Jurkat cells; endogenous in cells; host or cells: Jurkat cells
In words: pERK assay in Jurkat cells. Type of data set: cell-based. As for the experimental part:
ERK phosphorylation in response to RG7774 treatment was measured in Jurkat cells as described in ([Saroz et al., 2019]) using the AlphaLISA SureFire Ultra p-Erk1/2 assay (PerkinElmer, Waltham, MA, United States). Cells (200,000 per 96 well plate) were seeded in 40 μL RPMI 1640 assay medium (Fisher Scientific, Schwerte, Germany) containing 10% FCS, 2 mM L-Glu, and 25 mM HEPES) and incubated for 1 h at 37°C in 5% CO2. Cells were treated with increasing concentrations of RG7774 in 40 μL assay medium. Plates were shaken for 30 s (sec) at 450 rpm, incubated for 2 min at 37°C in 5% CO2, and placed on ice. Ice-cold lysis buffer (20 μL 5x) (supplied with the assay kit) was added, plates were shaken (500 rpm) for 10 min at 4°C, and 10 μL of lysate was transferred to a 384-well Optiplate (PerkinElmer, Waltham, MA, United States). The AlphaLISA assay was performed according to the manufacturer’s protocol. Plates were read using Tecan Infinite M1000Pro (excitation 680 nm for 100 ms, integration time 300 ms, and emission 615 nm).

Data set [3] addresses T2, Human 12-LOX (Homo sapiens, UniProt P18054).
T2 construct: human platelet-derived 12-LOX; from tissue; host or cells: human platelets
In words: Human 12-LOX assay. Type of data set: biochemical. To be noted: RG7774 10 µM; read-out: Mean ± SEM % inhibition of control, Human 12-LOX. As for the experimental part: The inhibitory effects of different concentrations of RG7774 (0.1-500 µM) on the activities of human recombinant 5-LOX (Cayman Chemical Company #60402), 15-LOX (Cayman Chemical Company #10011263), and human platelet-derived 12-LOX were determined using the Biovision Lipoxygenase Activity Assay Kit (#BVN-K978-100). This kit converts the LOX substrate to an intermediate that reacted with the probe, generating a fluorescent product. The effect of RG7774 (preincubated for 15 min) at 10 µM on LOXs (5-LOX: 0.5 or 1.2 µg; 12-LOX: 20 µg; 15-LOX: 0.23 or 0.3 µg) was ascertained by adding the compounds directly to the incubation medium and the fluorescent signal, recorded at excitation/emission 500/536 nm at 30 sec intervals for 30-40 min, was directly proportional to LOX activity. […] The percentage of human 5-, 12-, and 15-LOX activity (control) was estimated from the amount of oxidized probe in the reaction using a standard curve.

Data set [4] has as its target T3, human CB2R (Homo sapiens, UniProt P34972).
T3 construct: bgal (beta-galactosidase fragment of the PathHunter system); host or cells: CHO-K1
Briefly: Forskolin-stimulated cAMP assay in CHO cells. The class given is cell-based. As to the method: as §1

Data set [5] addresses T4, recombinant mouse CB2R (Mus musculus, UniProt P47936).
T4 construct: bgal (beta-galactosidase fragment of the PathHunter system); host or cells: CHO-K1
In words: Forskolin-stimulated cAMP assay in CHO cells. Type of data set: cell-based. As for the experimental part:
as §1

A short description of data set [6]: Aqueous stability assay (ASTA). Type of data set: physicochemical. To be noted: 37 °C, 2 h. As for the experimental part:
Aqueous solutions of RG7774 were prepared at 5 different pHs (pH 1-10) from DMSO stock solutions, added to incubation plates and shaken for 10 min at 37 °C. Solutions were transferred to a filter plate (Millipore MSGVN2250, pore size 0.22 μm) and filtered into V-bottom plates (ABGene, AB-0800) prior to heat-sealing. The procedure was repeated, increasing the 37 °C incubation time by 2 h. Samples were analyzed by HPLC at 0 and 2 h. A compound was classified as unstable if < 90% of the initial concentration was detected after 2 h.

T3 sequence (P34972 whole entry, the tested form may be a part): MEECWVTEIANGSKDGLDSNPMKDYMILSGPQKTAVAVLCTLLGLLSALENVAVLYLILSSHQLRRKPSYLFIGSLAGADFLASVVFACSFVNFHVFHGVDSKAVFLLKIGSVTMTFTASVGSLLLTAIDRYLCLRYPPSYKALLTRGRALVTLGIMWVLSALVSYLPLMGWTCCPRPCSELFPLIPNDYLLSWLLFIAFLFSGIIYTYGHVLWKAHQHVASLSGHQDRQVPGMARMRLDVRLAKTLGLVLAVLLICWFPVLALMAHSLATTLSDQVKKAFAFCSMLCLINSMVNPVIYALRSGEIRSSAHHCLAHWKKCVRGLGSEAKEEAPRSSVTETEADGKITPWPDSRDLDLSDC
T4 sequence (P47936 whole entry, the tested form may be a part): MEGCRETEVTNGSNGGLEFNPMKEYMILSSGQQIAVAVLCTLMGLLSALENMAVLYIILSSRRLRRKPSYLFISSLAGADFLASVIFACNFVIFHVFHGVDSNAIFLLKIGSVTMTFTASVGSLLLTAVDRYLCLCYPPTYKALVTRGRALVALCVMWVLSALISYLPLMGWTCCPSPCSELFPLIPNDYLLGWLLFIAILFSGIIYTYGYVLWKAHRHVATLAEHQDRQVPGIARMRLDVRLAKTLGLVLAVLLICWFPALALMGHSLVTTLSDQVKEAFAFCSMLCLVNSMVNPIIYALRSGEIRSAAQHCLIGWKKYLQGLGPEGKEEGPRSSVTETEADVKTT
T2 sequence (P18054 whole entry): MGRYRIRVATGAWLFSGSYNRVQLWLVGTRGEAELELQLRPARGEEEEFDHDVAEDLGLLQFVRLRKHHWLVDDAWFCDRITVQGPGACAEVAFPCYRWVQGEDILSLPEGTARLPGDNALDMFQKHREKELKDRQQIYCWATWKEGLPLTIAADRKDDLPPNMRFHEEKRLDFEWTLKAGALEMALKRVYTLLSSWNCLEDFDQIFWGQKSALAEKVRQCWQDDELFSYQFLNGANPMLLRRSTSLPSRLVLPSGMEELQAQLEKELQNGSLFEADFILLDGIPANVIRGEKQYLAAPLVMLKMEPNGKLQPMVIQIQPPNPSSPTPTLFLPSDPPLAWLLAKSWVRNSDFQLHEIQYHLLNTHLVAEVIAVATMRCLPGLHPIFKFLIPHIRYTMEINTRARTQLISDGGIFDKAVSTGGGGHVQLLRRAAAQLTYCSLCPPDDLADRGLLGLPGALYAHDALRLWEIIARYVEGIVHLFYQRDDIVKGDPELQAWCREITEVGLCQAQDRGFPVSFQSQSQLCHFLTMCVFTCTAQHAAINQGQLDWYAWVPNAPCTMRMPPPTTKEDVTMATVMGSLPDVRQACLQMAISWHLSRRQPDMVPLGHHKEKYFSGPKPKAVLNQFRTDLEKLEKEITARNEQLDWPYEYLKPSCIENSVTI
T1 sequence (P34972 whole entry): as the sequence (P34972 whole entry, the tested form may be a part) above
Chain of human CB1R (P21554 whole entry, the tested form may be a part): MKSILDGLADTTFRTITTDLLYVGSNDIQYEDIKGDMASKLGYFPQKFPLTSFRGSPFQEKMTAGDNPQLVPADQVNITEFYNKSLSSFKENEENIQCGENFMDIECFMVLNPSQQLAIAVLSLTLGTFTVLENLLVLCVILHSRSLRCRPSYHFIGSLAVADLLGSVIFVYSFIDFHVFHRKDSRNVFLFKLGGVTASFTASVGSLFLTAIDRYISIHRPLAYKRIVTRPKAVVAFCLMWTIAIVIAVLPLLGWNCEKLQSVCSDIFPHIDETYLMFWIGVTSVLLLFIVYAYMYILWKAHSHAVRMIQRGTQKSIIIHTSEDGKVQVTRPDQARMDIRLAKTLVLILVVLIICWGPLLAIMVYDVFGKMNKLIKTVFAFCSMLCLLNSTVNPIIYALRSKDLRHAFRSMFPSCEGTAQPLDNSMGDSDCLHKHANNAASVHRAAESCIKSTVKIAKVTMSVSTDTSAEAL

`Cn1nnnc1Cn1nnc2c(N3CC[C@H](O)C3)nc(C(C)(C)C)nc21` [RG7774, (S)-1-(5-tert-butyl-3-[(1-methyl-1H-tetrazol-5-yl)methyl]-3H-[1,2,3]triazolo[4,5-d]pyrimidin-7-yl)pyrrolidin-3-ol]: in data set [1], the “effect on human CB1R in cAMP assay” value is on record as “no effect”. The EC50 in data set [2] is 38.5 ± 15 nM; in data set [4] (EC50, inhibition of forskolin-induced cAMP, human CB2R, recombinant CHO cells), 2.8 nM and 2.81 nM; in data set [5] it was 2.6 ± 0.14 nM. Besides, the inhibition at 10 µM in data set [3] was 1.5 ± 1.8%. In addition, in data set [4] (cAMP assays), the “functional affinity for human CB2R over CB1R” value was > 3,600 fold. In addition, the “efficacy compared to maximum efficacy of CP55940, human CB2R” value in data set [4] (cAMP, CHO cells) is “full agonist”. The “efficacy compared to maximum efficacy of CP55940, mouse CB2R” value in data set [5] (cAMP, CHO cells) is listed as “full agonist”. Besides, in data set [6], the “Chemical stability in aqueous media at pH 1–10” value is “stable”.
